# Assay results taken from patent US11957684B2, “Treatment of heavy menstrual bleeding associated with uterine fibroids” (Sumitomo Pharma Switzerland GmbH, priority 2016, dated 2024).
# “And” between values parts separate entries of the source, which are not always exact repeats. Equal entries are not always repeated. Where two headings read alike, the source gives them in different places.
# Columns and labels:
# [1] = system: endometriosis-associated pain; format: in vivo, human
# Procedure: Subjects assessed and recorded their own quality of life (QOL) using the EHP-30 once a month during the study visit. As used in the examples, the VAS score was evaluated using a 100 mm scale. For pain intensity, the scale was anchored by “no pain” (score of 0) and “pain as bad as you can imagine” (score of 100). […] The above items were evaluated using a patient diary that was distributed by the sponsor. Subjects filled out the patient diary every day during the treatment period or until early termination. If taking prohibited analgesics, subjects recorded this fact in the patient diary along with the accompanying pain symptoms before use of analgesics. As used in the examples, pain during menstruation and pelvic pain unrelated to menstruation were evaluated using scores on the M-B&B and B&B. The M-B&B scores were recorded by subjects on the patient diary supplied by the sponsor. Subjects filled out the patient diary every day during the treatment period or until early termination. If taking prohibited analgesics, subjects recorded this fact in the patient diary along with the accompanying pain symptoms before use of analgesics. The investigator or subinvestigator assessed each patient's pain through interviews and filled out a B&B once a month. The items that were assessed are shown below. The M-B&B score included: dysmenorrhea (severe, moderate, mild, no pain, or no menstruation); pelvic pain (severe, moderate, mild, or no pain); deep dyspareunia (severe, moderate, mild, no pain, or no intercourse). The B&B score included: dysmenorrhea (severe, moderate, mild, none, or not applicable); dyspareunia (severe, moderate, mild, none, or not applicable); pelvic pain (severe, moderate, mild, or none); pelvic tenderness (severe, moderate, mild, or none); and induration (severe, moderate, mild, or none). As used in the examples, the EHP-30 score was obtained by subjects assessing and recording their own QOL using the EHP-30 questionnaire.
# [2] = system: uterine fibroids; test: Example 10 phase 3 study versus leuprorelin in uterine fibroids: efficacy; format: in vivo, human; settings: between Week 6 and Week 12
# Procedure: Subjects were aged 20 years or older inclusive, with uterine fibroids. […] The number of sites for this study was approximately 40.
# The leuprorelin subjects were administered 1.88 mg leuprorelin, 3.75 mg leuprorelin, or placebo subcutaneously once every 4 weeks. The duration of treatment for both groups was 24 weeks, and the follow-up period was 4 weeks.
# Assessment included answers to the uterine fibroid symptom and quality of life questionnaire provided in FIGS. 3A-3C; answers to the work productivity and activity impairment questionnaire: general health provided in FIGS. 66A-66B; clinical laboratory tests for hematology, chemistries, urinalysis, hormone, and biochemical bone metabolism markers.
# [3] = 40 mg, end of 84 consecutive days
compound,measurement,setting,value
"CONC(=O)Nc1ccc(-c2sc3c(c2CN(C)C)c(=O)n(-c2ccc(OC)nn2)c(=O)n3Cc2c(F)cccc2F)cc1 [Compound 1, N-(4-(1-(2,6-difluorobenzyl)-5-((dimethylamino)methyl)-3-(6-methoxy-3-pyridazinyl)-2,4-dioxo-1,2,3,4-tetrahydrothieno[2,3-d]pyrimidin-6-yl)phenyl)-N′-methoxyurea]","change from baseline in maximum VAS, pelvic pain","[1]; 20 mg, end of treatment",−33.3±30.14 mm
same,"change from baseline in mean M-B&B score, deep dyspareunia","[1]; 20 mg, end of treatment",−0.210±0.4936
same,"change from baseline in mean M-B&B score, dysmenorrhea","[1]; 20 mg, end of treatment",−0.795±0.6490
same,"change from baseline in mean VAS, dysmenorrhea","[1]; 20 mg, end of treatment",−19.825±20.4332 mm
same,"change from baseline in mean VAS, dyspareunia","[1]; 20 mg, end of treatment",−3.553±11.5544 mm
same,"change from baseline in mean VAS, pelvic pain","[1]; 20 mg, end of treatment",−9.032 mm and −9.032±11.8432 mm
same,change from baseline in proportion of days with usage of pain killer,"[1]; 20 mg, end of treatment",−7.36±14.585%
same,"change in proportion of days without pain (M-B&B), deep dyspareunia","[1]; 20 mg, end of treatment",18.04±47.892%
same,"change in proportion of days without pain (M-B&B), dysmenorrhea","[1]; 20 mg, end of treatment",50.92±41.641%
same,"change in proportion of days without pain (M-B&B), pelvic pain","[1]; 20 mg, end of treatment",17.75±30.339%
same,"change in proportion of days without pain (VAS), dysmenorrhea","[1]; 20 mg, end of treatment",50.91±42.602%
same,"change in proportion of days without pain (VAS), dyspareunia","[1]; 20 mg, end of treatment",15.14±47.793%
same,"change in proportion of days without pain (VAS), pelvic pain","[1]; 20 mg, end of treatment",21.50±28.859%
same,"mean VAS score, dysmenorrhea","[1]; 20 mg, end of treatment",7.878±14.2406 mm
same,"mean VAS score, dyspareunia","[1]; 20 mg, end of treatment",6.363±13.1847 mm
same,"mean VAS score, pelvic pain","[1]; 20 mg, end of treatment",6.557±11.2902 mm
same,subjects who achieved amenorrhea,"[1]; 20 mg, end of treatment",54.0%
same,"subjects without pain in M-B&B score, dysmenorrhea","[1]; 20 mg, end of treatment",61.0%
same,"subjects without pain in M-B&B score, dyspareunia","[1]; 20 mg, end of treatment",52.5%
same,"subjects without pain in M-B&B score, pelvic pain","[1]; 20 mg, end of treatment",34.0%
same,"subjects without pain in VAS score, dysmenorrhea","[1]; 20 mg, end of treatment",59.0%
same,"subjects without pain in VAS score, dyspareunia","[1]; 20 mg, end of treatment",47.5%
same,"subjects without pain in VAS score, pelvic pain","[1]; 20 mg, end of treatment",20%
same,"change from baseline in pelvic pain, dysmenorrhea, and dyspareunia in mean VAS","[1]; 40 mg, 84 consecutive days",−10.418±11.0171 mm
same,"change from baseline in mean VAS, dysmenorrhea","[1]; 40 mg, Day 1-28",−10.979±14.8545 mm
same,"change from baseline in mean VAS, dyspareunia","[1]; 40 mg, Day 1-28",2.995±9.7916 mm
same,"change from baseline in mean VAS, pelvic pain","[1]; 40 mg, Day 1-28",−3.761±7.8831 mm
same,"mean VAS score, dysmenorrhea","[1]; 40 mg, Day 1-28",19.452±19.1065 mm
same,"mean VAS score, dyspareunia","[1]; 40 mg, Day 1-28",9.522±13.6408 mm
same,"mean VAS score, pelvic pain","[1]; 40 mg, Day 1-28",11.498±13.2341 mm
same,"change from baseline in mean VAS, dysmenorrhea","[1]; 40 mg, Day 57-84",−30.094±17.2623 mm
same,"change from baseline in mean VAS, dyspareunia","[1]; 40 mg, Day 57-84",−1.860±10.3161 mm
same,"change from baseline in mean VAS, pelvic pain","[1]; 40 mg, Day 57-84",−10.537±11.0516 mm
same,"mean VAS score, dysmenorrhea","[1]; 40 mg, Day 57-84",0.569±2.5367 mm
same,"mean VAS score, dyspareunia","[1]; 40 mg, Day 57-84",4.126±7.9652 mm
same,"mean VAS score, pelvic pain","[1]; 40 mg, Day 57-84",4.785±8.9162 mm
same,"change from baseline in mean VAS, dysmenorrhea","[1]; 40 mg, Day 141-168",−31.210±17.7668 mm
same,"change from baseline in mean VAS, dyspareunia","[1]; 40 mg, Day 141-168",−0.830±13.6774 mm
same,"mean VAS score, dysmenorrhea","[1]; 40 mg, Day 141-168",0.430±2.3141 mm
same,"mean VAS score, dyspareunia","[1]; 40 mg, Day 141-168",3.531±9.6053 mm
same,"mean VAS score, pelvic pain","[1]; 40 mg, Day 141-168",2.979±6.1704 mm
same,"change from baseline in EHP-30, Self-image","[1]; 40 mg, Week 24",−9.68±17.744
same,"change from baseline in EHP-30, control & powerlessness","[1]; 40 mg, Week 24",−20.88±21.676
same,"change from baseline in EHP-30, emotional well-being","[1]; 40 mg, Week 24",−13.26±16.316
same,"change from baseline in EHP-30, pain","[1]; 40 mg, Week 24",−25.94±19.902
same,"change from baseline in EHP-30, social support","[1]; 40 mg, Week 24",−10.28±17.109
same,"change from baseline in mean B&B score, dysmenorrhea","[1]; 40 mg, Week 24",−2.0±0.61
same,"change from baseline in mean B&B score, dyspareunia","[1]; 40 mg, Week 24",−0.1±0.43
same,"change from baseline in mean B&B score, pelvic pain","[1]; 40 mg, Week 24",−1.0±0.86
same,"change from baseline in mean B&B score, pelvic tenderness","[1]; 40 mg, Week 24",−1.0±0.92
same,"subjects without pain in B&B score, dysmenorrhea","[1]; 40 mg, Week 24",94.3%
same,"subjects without pain in B&B score, pelvic pain","[1]; 40 mg, Week 24",58.6%
same,change from baseline in proportion of days without dysmenorrhea (M-B&B),"[1]; 40 mg, end of 28 consecutive days",73.98±29.567%
same,change from baseline in mean EHP-30 score,[1]; [3],−25.94±19.902
same,"change from baseline in mean M-B&B score, deep dyspareunia",[1]; [3],−0.097±0.4325
same,"change from baseline in mean M-B&B score, dysmenorrhea",[1]; [3],−1.144±0.5014
same,"change from baseline in mean M-B&B score, pelvic pain",[1]; [3],−0.400±0.4491
same,change from baseline in proportion of days without deep dyspareunia (M-B&B),[1]; [3],8.15±43.20%
same,change from baseline in proportion of days without dysmenorrhea (VAS),[1]; [3],78.45±29.838%
same,change from baseline in proportion of days without pelvic pain (M-B&B),[1]; [3],31.00±36.746%
same,change from baseline in proportion of days without pelvic pain (VAS),[1]; [3],36.59±34.849%
same,subjects without dysmenorrhea (B&B),[1]; [3],94.3%
same,subjects without dyspareunia (M-B&B),[1]; [3],51.3%
same,"change from baseline in maximum M-B&B score, dysmenorrhea","[1]; 40 mg, end of treatment",−2.0±0.76
same,"change from baseline in maximum M-B&B score, dyspareunia","[1]; 40 mg, end of treatment",−0.1±0.54
same,"change from baseline in maximum M-B&B score, pelvic pain","[1]; 40 mg, end of treatment",−1.0±0.89
same,"change from baseline in maximum VAS, dysmenorrhea","[1]; 40 mg, end of treatment",−57.1±25.00 mm
same,"change from baseline in maximum VAS, dyspareunia","[1]; 40 mg, end of treatment",−2.5±17.17 mm
same,"change from baseline in maximum VAS, pelvic pain","[1]; 40 mg, end of treatment",−49.7±26.47 mm
same,"change from baseline in mean M-B&B score, deep dyspareunia","[1]; 40 mg, end of treatment",−0.097±0.4325
same,"change from baseline in mean M-B&B score, dysmenorrhea","[1]; 40 mg, end of treatment",−1.144±0.5014
same,"change from baseline in mean M-B&B score, pelvic pain","[1]; 40 mg, end of treatment",−0.400±0.4491
same,"change from baseline in mean VAS, dysmenorrhea","[1]; 40 mg, end of treatment",−29.513±17.5379 mm
same,"change from baseline in mean VAS, dyspareunia","[1]; 40 mg, end of treatment",−0.925±12.0373 mm
same,"change from baseline in mean VAS, pelvic pain","[1]; 40 mg, end of treatment",−11.924 mm and −11.924±11.2609 mm
same,change from baseline in mean score of amount of bleeding (0 to 5),"[1]; 40 mg, end of treatment",−2.207±0.8149
same,change from baseline in proportion of days with usage of pain killer,"[1]; 40 mg, end of treatment",−9.95±14.214%
same,"change in proportion of days without pain (M-B&B), deep dyspareunia","[1]; 40 mg, end of treatment",8.15±43.207%
same,"change in proportion of days without pain (M-B&B), dysmenorrhea","[1]; 40 mg, end of treatment",73.98±29.567%
same,"change in proportion of days without pain (M-B&B), pelvic pain","[1]; 40 mg, end of treatment",31.00±36.746%
same,"change in proportion of days without pain (VAS), dysmenorrhea","[1]; 40 mg, end of treatment",78.45±29.838%
same,"change in proportion of days without pain (VAS), dyspareunia","[1]; 40 mg, end of treatment",4.50±40.796%
same,"change in proportion of days without pain (VAS), pelvic pain","[1]; 40 mg, end of treatment",36.59±34.849%
same,"mean VAS score, dysmenorrhea","[1]; 40 mg, end of treatment",0.918±4.3438 mm
same,"mean VAS score, dyspareunia","[1]; 40 mg, end of treatment",4.842±9.1145 mm
same,"mean VAS score, pelvic pain","[1]; 40 mg, end of treatment",3.335±6.4059 mm
same,subjects who achieved amenorrhea,"[1]; 40 mg, end of treatment",91.3%
same,"subjects without pain in M-B&B score, dysmenorrhea","[1]; 40 mg, end of treatment",93.2%
same,"subjects without pain in M-B&B score, dyspareunia","[1]; 40 mg, end of treatment",51.3%
same,"subjects without pain in M-B&B score, pelvic pain","[1]; 40 mg, end of treatment",52.4%
same,"subjects without pain in VAS score, dysmenorrhea","[1]; 40 mg, end of treatment",93.2%
same,"subjects without pain in VAS score, dyspareunia","[1]; 40 mg, end of treatment",48.7%
same,"subjects without pain in VAS score, pelvic pain","[1]; 40 mg, end of treatment",49.5% and 50%
same,proportion of subjects with a PBAC <10,[2],82.2%
